# Data taken from patent publication US20250099420A1, “SMALL MOLECULE MODULATORS OF GPR139 COMPLEX” (University of Florida Research Foundation, Incorporated, priority 2022, published 2025).
# Read-outs that look alike come from different tables or passages of the source.
# Assays:
# parental HEK cells = test: HEK parental Agonist Counterscreen Assay (non-transfected cells); format: cell-based; settings: for Averaged Max % Response (±St. Dev.): activity relative to known control
# From the text: The high control for the agonist counterscreen was Forskolin not acetylcholine.
# GPR139 = molecular target: T1, GPR139 (Homo sapiens, UniProt Q6DWJ6); test: GPR139 Agonist titration / agonist counterscreen assay (calcium detection, HEK-GPR139 cells); format: cell-based; design: expressed in transfected cells; host or cells: HEK Aequorin cells, Maxcyte transient transfection; settings: GPR139 Agonist Activity; for Averaged Max % Response (±St. Dev.): activity relative to known control; for EC50: read-out: EC50
# T1 sequence (Q6DWJ6 1-353): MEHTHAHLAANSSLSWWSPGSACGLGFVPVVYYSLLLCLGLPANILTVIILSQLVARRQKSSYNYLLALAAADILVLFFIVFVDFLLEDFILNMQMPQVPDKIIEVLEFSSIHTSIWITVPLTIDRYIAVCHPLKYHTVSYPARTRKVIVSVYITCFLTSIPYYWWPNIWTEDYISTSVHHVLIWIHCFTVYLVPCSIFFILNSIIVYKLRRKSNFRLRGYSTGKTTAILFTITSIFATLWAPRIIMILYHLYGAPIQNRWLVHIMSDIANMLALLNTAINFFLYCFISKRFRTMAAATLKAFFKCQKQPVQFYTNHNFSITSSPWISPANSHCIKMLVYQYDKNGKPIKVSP
# Method: GPR activity was assessed using a calcium detection assay. […] Negative control samples were treated with DMSO. […] Intracellular calcium was measured using Calcium 5.
# [1] = Homo sapiens, HEK293, HEK Agonist Activity section of Table 4 (parental HEK counterscreen)
# [2] = values printed in E-notation without unit
# [3] = Homo sapiens, HEK293, HEK Agonist Activity, parental non-transfected HEK cells
# [4] = HEK Agonist Activity, parental non-transfected HEK cells
SMILES,Lipophilic Efficiency (logD) (parental HEK cells; HEK Agonist Activity section),Lipophilic Efficiency (logP) (parental HEK cells; HEK Agonist Activity section),Averaged Max % Response (±St. Dev.) (GPR139) [%],Lipophilic Efficiency (logD) (GPR139; based on logD),Lipophilic Efficiency (logP) (GPR139; based on logP),Hill Slope (GPR139; fitted dose-response curve),Efficiency Ligand (GPR139; ligand efficiency),EC50 (GPR139; [2]) [nM],Averaged Max % Response (±St. Dev.) (parental HEK cells; HEK Agonist Activity section) [%],EC50 (parental HEK cells; [1]) [nM],also measured
O=C(CCc1nc2ccccc2s1)NNC(=O)C1CCCCC1 [SR-01000068916],2.04,2.04,118.50 ± 16.12,4.23,4.23,0.84,0.43,98.9,19.72 ± 5.30,> 15300,–
Cc1cc(C(=O)CCC(=O)NNC(=O)c2ccc(COc3ccccc3)cc2)c(C)o1 [SR-01000069259],–,–,126.19 ± 25.88,3.74,3.74,–,0.37,> 6.5,–,–,Lipophilic Efficiency (logD) (parental HEK cells; HEK Agonist Activity): 0.40; Lipophilic Efficiency (logP) (parental HEK cells; HEK Agonist Activity): 0.40; Averaged Max % Response (±St. Dev.) (parental HEK cells; HEK Agonist Activity): 7.00 ± 9.99%; EC50 (parental HEK cells; [3]): > 14200 nM
Cc1ccc(OCC(=O)NNC(=O)CN(C)S(=O)(=O)c2ccc(C)cc2)cc1 [SR-01000069435],3.09,3.08,94.34 ± 21.26,5.44,5.43,0.66,0.36,–,14.76 ± 3.78,> 14600,–
O=C(CCC1CCCC1)NNC(=O)CSc1ccc(Cl)cc1 [SR-01000069439],1.55,1.55,123.43 ± 12.00,3.93,3.93,0.62,0.46,61.7,1.51 ± 2.29,> 14900,–
COc1ccccc1CC1(C)NC(=O)N(CC(=O)NC(C)c2cccc(Cl)c2)C1=O (stereo not shown) [SR-01000069564],–,–,87.90 ± 18.60,4.85,4.85,0.93,0.36,17.2,–,–,Lipophilic Efficiency (logD) (parental HEK cells; HEK Agonist Activity): 1.93; Lipophilic Efficiency (logP) (parental HEK cells; HEK Agonist Activity): 1.93; Averaged Max % Response (±St. Dev.) (parental HEK cells; HEK Agonist Activity): −3.54 ± 8.88%; EC50 (parental HEK cells; [4]): > 14400 nM
Cc1ccc(C)c(C(=O)CCC(=O)NNC(=O)c2cc(C)oc2C)c1 [SR-01000069642],–,–,100.05 ± 4.70,4.99,4.99,0.80,0.41,43.1,–,–,Lipophilic Efficiency (logD) (parental HEK cells; HEK Agonist Activity): 2.45; Lipophilic Efficiency (logP) (parental HEK cells; HEK Agonist Activity): 2.45; Averaged Max % Response (±St. Dev.) (parental HEK cells; HEK Agonist Activity): 8.55 ± 4.45%; EC50 (parental HEK cells; [3]): > 14800 nM
O=C(CN1C(=O)NC2(CCc3ccccc32)C1=O)Nc1cccc(Cl)c1 (stereo not shown) [SR-01000069699],2.03,2.03,116.05 ± 3.28,4.18,4.18,0.54,0.38,108,12.32 ± 5.16,> 15200,–

# The next lines start with results.
Lipophilic Efficiency (logD) (parental HEK cells; HEK Agonist Activity section),Lipophilic Efficiency (logP) (parental HEK cells; HEK Agonist Activity section),Averaged Max % Response (±St. Dev.) (GPR139) [%],Lipophilic Efficiency (logD) (GPR139; based on logD),Lipophilic Efficiency (logP) (GPR139; based on logP),Hill Slope (GPR139; fitted dose-response curve),Efficiency Ligand (GPR139; ligand efficiency),EC50 (GPR139; [2]) [nM],SMILES,Averaged Max % Response (±St. Dev.) (parental HEK cells; HEK Agonist Activity section) [%],EC50 (parental HEK cells; [1]) [nM],also measured
1.78,1.78,93.45 ± 21.44,–,–,–,–,–,COc1cc(C(=O)NNC(=O)CCc2c[nH]c3ccccc23)ccc1OC(C)C [SR-01000068919],39.50 ± 8.66,> 14200,Efficiency Ligand (GPR139): 0.31; Hill Slope (GPR139): 0.88; Lipophilic Efficiency (logD) (GPR139): 3.27; Lipophilic Efficiency (logP) (GPR139): 3.27; EC50 (GPR139; HEK-GPR139 cells): 460 nM
–,–,114.67 ± 3.82,4.37,4.37,1.18,0.49,3.7,O=C(CSc1ccc2ccccc2c1)NNC(=O)c1ccc(Br)s1 [SR-01000069345],–,–,Lipophilic Efficiency (logD) (parental HEK cells; HEK Agonist Activity): 0.77; Lipophilic Efficiency (logP) (parental HEK cells; HEK Agonist Activity): 0.77; Averaged Max % Response (±St. Dev.) (parental HEK cells; HEK Agonist Activity): 15.34 ± 2.20%; EC50 (parental HEK cells; [4]): > 14700 nM
1.25,1.25,97.44 ± 1.25,3.03,3.02,1.19,0.44,248,Cc1ccccc1SCC(=O)NNC(=O)c1ccc(Br)s1 [SR-01000069352],11.25 ± 2.29,> 14600,–
2.43,2.43,99.00 ± 11.26,4.39,4.39,0.48,0.39,171,Cc1ccc(SCC(=O)NNC(=O)CCC(=O)c2cccs2)cc1 [SR-01000069391],12.32 ± 6.09,–,EC50 (parental HEK cells; HEK Agonist Activity section of Table 4 (parental HEK counterscreen)): > 15500 nM
3.83,3.83,95.18 ± 9.10,6.21,6.20,1.06,0.39,60.5,O=C(Cc1cccc2ccccc12)NCC(=O)NNC(=O)c1ccco1 [SR-01000069451],25.95 ± 1.00,> 14400,–
2.04,2.04,93.05 ± 4.55,–,–,–,–,–,O=C(CCc1nc2ccccc2s1)NNC(=O)CSc1ccccc1F [SR-01000069574],7.10 ± 4.83,> 14500,Efficiency Ligand (GPR139): 0.35; Hill Slope (GPR139): 0.94; Lipophilic Efficiency (logD) (GPR139): 3.68; Lipophilic Efficiency (logP) (GPR139): 3.67; EC50 (GPR139; HEK-GPR139 cells): 339 nM
1.89,1.89,98.34 ± 1.36,–,–,–,–,–,COc1cc(C(=O)NNC(=O)CSc2ccc(C)cc2)cc(OC)c1C [SR-01000070170],6.82 ± 9.60,> 15000,Efficiency Ligand (GPR139): 0.34; Hill Slope (GPR139): 0.96; Lipophilic Efficiency (logD) (GPR139): 3.40; Lipophilic Efficiency (logP) (GPR139): 3.40; EC50 (GPR139; HEK-GPR139 cells): 462 nM
1.83,1.83,99.23 ± 7.18,–,–,–,–,–,Cc1ccccc1SCC(=O)NNC(=O)C1CCCCC1 [SR-01000070173],7.45 ± 6.67,> 14700,Efficiency Ligand (GPR139): 0.42; Hill Slope (GPR139): 0.62; Lipophilic Efficiency (logD) (GPR139): 3.30; Lipophilic Efficiency (logP) (GPR139): 3.30; EC50 (GPR139; HEK-GPR139 cells): 507 nM
